Publication PMC11600623 (Clinical and Translational Science, 2024)
Like-named read-outs stand apart in the source and are kept apart here.

Experiments:
Format in all cases: in vivo, human
[1] = Population PK model of quizartinib
[2] = Influence of covariates on steady-state exposure metrics
[3] = Population PK model of AC886
[4] = newly diagnosed AML vs R/R AML reference
[5] = residual unexplained variability
[6] = final model, typical subject, f MET fixed to 0.5
[7] = newly diagnosed AML vs R/R AML and non-AML reference

CC(C)(C)c1cc(NC(=O)Nc2ccc(-c3cn4c(n3)sc3cc(OCCN5CCOCC5)ccc34)cc2)no1 [quizartinib]
IIV D1 [1]: 82 % coefficient of variation (CV)
IIV Q 1,quiz [1]: 69 % CV
IIV (CV) for F rel ([1]; AML patients): 44%
Age effect on V p1,quiz ([1]; exponential covariate model): 0.0152 1/year
D1 (duration of zero-order input to depot compartment) ([1]; final model): 0.710 h
Shape box-cox parameter for IIV on F rel for AML patients ([1]; final model): −1.28
T lag (absorption lag time) ([1]; final model): 0.196 h
k a (first-order absorption rate constant) ([1]; final model): 1.10 h⁻¹
Fractional change in CLquiz for Black race ([1]; final model covariate effect): −0.261
Fractional change in CLquiz with strong CYP3A inhibitors ([1]; final model covariate effect): −0.301
Fractional change in F rel with moderate CYP3A inhibitors ([1]; final model covariate effect): 0.116
Fractional change in F rel with strong CYP3A inhibitors ([1]; final model covariate effect): 0.273
Fractional change in V c,quiz for females ([1]; final model covariate effect): −0.169
Fractional change in k a for non-AML subjects ([1]; final model covariate effect): −0.188
Q 1,quiz (apparent intercompartmental clearance 1) ([1]; final model, typical subject): 40.7 L/h
Q 2,quiz (apparent intercompartmental clearance 2) ([1]; final model, typical subject): 0.757 L/h
V p1,quiz (apparent peripheral volume of distribution 1) ([1]; final model, typical subject): 312 L
V p2,quiz (apparent peripheral volume of distribution 2) ([1]; final model, typical subject): 91.9 L
Vd ([1]; human, plasma, oral): 371 L
clearance ([1]; human, plasma, oral): 111 mL/min
IIV D1 ([1]; interindividual variability): 0.821 CV
IIV F rel AML patients ([1]; interindividual variability): 0.444 CV
IIV F rel non-AML subjects ([1]; interindividual variability): 0.256 CV
IIV Q 1,quiz ([1]; interindividual variability): 0.691 CV
IIV T lag ([1]; interindividual variability): 0.647 CV
IIV V c,quiz ([1]; interindividual variability): 0.186 CV
IIV k a ([1]; interindividual variability): 0.423 CV
Fractional change in F rel during Consolidation [1, 4]: −0.192
Fractional change in F rel during Continuation [1, 4]: 0.418
Fractional change in F rel during Induction [1, 4]: −0.419
F rel for non-AML subjects ([1]; relative to AML patients): 1.73
Additive RUV log scale AML patients [1, 5]: 0.440 CV
Additive RUV log scale non-AML subjects [1, 5]: 0.102 CV
Increase of exposure ([2]; concomitant administration of strong CYP3A inhibitors): ~2 fold
Exposure in non-AML subjects compared to AML patients ([2]; higher in non-AML subjects): approximately 1.7 fold
Increase of steady-state area under the curve during the dosing interval (AUCss) ([2]; use of strong CYP3A inhibitors): 1.8 fold

CC(C)(CO)c1cc(NC(=O)Nc2ccc(-c3cn4c(n3)sc3cc(OCCN5CCOCC5)ccc34)cc2)no1 [AC886]
IIV (CV) for CLAC886 ([3]; AML patients): 74%
Interindividual variability of systemic clearance ([3]; abstract statement for both moieties): approximately 70 % coefficient of variation
Fractional change in CLAC886 for Black race ([3]; final model covariate effect): 0.488
Fractional change in CLAC886 for non-AML subjects ([3]; final model covariate effect): 0.843
Fractional change in CLAC886 with strong CYP3A inhibitors ([3]; final model covariate effect): 0.298
Fractional change in V c,AC886 with strong CYP3A inhibitors ([3]; final model covariate effect): 2.79
Q AC886 (apparent intercompartmental clearance) ([3]; final model, typical subject): 3.76 L/h
V p,AC886 (apparent peripheral volume of distribution) ([3]; final model, typical subject): 68.5 L
CLAC886 (apparent CL of AC886) [3, 6]: 4.61 L/h
V c,AC886 (apparent central volume of distribution) [3, 6]: 8.93 L
IIV CLAC886 AML patients ([3]; interindividual variability): 0.740 CV
IIV CLAC886 non-AML subjects ([3]; interindividual variability): 0.516 CV
IIV V c,AC886 ([3]; interindividual variability): 1.36 CV
Fractional change in f MET during Consolidation [3, 7]: 0.272
Fractional change in f MET during Continuation [3, 7]: −0.249
Fractional change in f MET during Induction [3, 7]: 0.715
Additive RUV log scale AML patients [3, 5]: 0.452 CV
Additive RUV log scale non-AML subjects [3, 5]: 0.312 CV
Change of exposure compared to all other race categories ([2]; Black race, median difference): ~0.7 fold
